Assay results published in patent US9737510B2, “Indazole compounds and a process for the preparation thereof” (Council of Scientific & Industrial Research, priority 2013, dated 2017).
≈ marks a conversion by molar mass, not a printed value.

Key:
Metabolic study in HLM = format: in vitro ADME
[1] = Metabolic study and intrinsic clearance in MLM; format: in vitro ADME
CYP3A4 = CYP3A4 (Homo sapiens, UniProt P08684); assay: CYP3A4 inhibition; format: in vitro ADME
Kinetic solubility = format: physicochemical; conditions: kinetic from dmso stock
LTA4H = biological target: T1, LTA4H (Homo sapiens, UniProt P09960); assay: LTA4H inhibition; format: biochemical; conditions: read-out: IC50 against LTA4H
T1 sequence (P09960 1-611): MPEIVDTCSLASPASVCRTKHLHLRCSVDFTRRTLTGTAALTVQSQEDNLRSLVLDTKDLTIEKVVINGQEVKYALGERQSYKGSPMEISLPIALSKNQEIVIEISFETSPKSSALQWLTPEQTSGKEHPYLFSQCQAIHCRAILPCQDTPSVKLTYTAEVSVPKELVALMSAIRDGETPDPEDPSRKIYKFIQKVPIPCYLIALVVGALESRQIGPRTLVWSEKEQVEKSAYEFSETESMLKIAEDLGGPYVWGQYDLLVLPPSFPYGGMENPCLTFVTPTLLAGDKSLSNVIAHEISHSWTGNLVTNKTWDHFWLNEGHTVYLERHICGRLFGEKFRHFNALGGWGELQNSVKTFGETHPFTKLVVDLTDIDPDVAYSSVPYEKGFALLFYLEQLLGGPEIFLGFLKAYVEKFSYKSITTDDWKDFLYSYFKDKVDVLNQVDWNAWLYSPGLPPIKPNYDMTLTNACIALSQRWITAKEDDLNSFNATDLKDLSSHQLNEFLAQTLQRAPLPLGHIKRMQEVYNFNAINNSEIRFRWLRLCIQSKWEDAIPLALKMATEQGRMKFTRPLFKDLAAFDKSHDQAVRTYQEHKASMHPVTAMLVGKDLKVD
Experimental: NDS100178 series of compound primarily activates imidazoline receptor […]. In high glucose condition this activation leads to formation of Diacylglycerol (DAG). DAG subsequently generates Arachidonic Acids (AA) in the cell. Metabolites of AA especially epoxyeicosatrienenoic acids (EETs) and hydroxyeicosatetrenoic acids (HETEs) induce exocytosis leading to increased secretion of insulin from the cells. The other major signalling pathway that can alter the glucose/DAG induced AA pool is the leukotriene pathway, that, by metabolizing AA into different leukotrienes and not EET and HETE can suppress its insulin secretion effect. Molecules that can inhibit metabolism of AA through leukotriene pathway can maintain AA pool leading to its metabolism only through EETs and HETEs and thus can enhance increase insulin secretion. One of the major enzymes in leukotriene pathway is LTA4H hydrolase that converts LTA4 into LTB4, a AA derivative that suppresses insulin secretion. A novel finding that inhibiting LTA4H can enhance insulin secretion has been established by the inventors. NDS100178 inhibits LTA4H (IC50<500 nM) while the IC50 against LTA4H target of compound 6 from patent US20040009976 Compound: 5-Chloro-2-methyl-3-(4,5-dihydro-1-H-imidazol-2-yl)-1H-indole) is above 10 uM.

MIN6 cells = assay: Insulinotropic activity: insulin secretion from MIN6 cells (ELISA based assay); format: cell-based, mouse; conditions: for Insulin Secretion: standard error in bracket
Experimental: Insulinotropic activity of the NDS100178 and NDS100179 was measured by a well-optimized ELISA based Assay (Shantani Protocol #5205) described below.
Materials • MIN6Cell (source: National Center for Cell Sciences, Pune) • Mouse Insulin ELISA kit (Mercodia, 10-1247-01) • Plate Shaker (MixMatefromEppendorf) • HEPES Balanced Krebs-Ringer bicarbonate buffer (components as follows)
Method • i. Seed proliferating culture of MIN-6 cells into a 6 well plate with almost half the confluency two days before the experiment. • ii. One the day of Insulin induction experiment, the cells should become almost confluent and are in good condition. • iii. On the day of experiment, first prepare 1×KRB-HEPES buffer with 0.1% BSA (for rinse) and without BSA (for equilibration and insulin induction) as described in the materials. • iv. Prepare equilibration buffer: 1×KRB-HEPES buffer without BSA containing 3.3 mM glucose (to bring down the glucose level of all cells to the same level). For example, add 66 ul 1 M glucose stock solution to 20 ml KRB-HEPES buffer without BSA. • v. Prepare the stimulating buffer (insulin induction): 1×KRB-HEPES buffer without BSA containing the defined glucose level (in most cases, it will be 16.7 mM glucose) and the desired concentration of molecule. • vi. Pre warm all the buffers to 37° C. in the water bath (at 15 minutes). • vii. Remove media from all wells, rinse each well twice with 2 ml KRB-HEPES buffer containing 0.1% BSA. • viii. Add 2 ml of equilibration buffer in each well and incubate at 37° C. for half an hour. • ix. After the incubation add 2 ml of stimulating buffer in respective wells (properly labelled) and incubate 37° C. for 1 hour. • x. In the meanwhile, turn on the refrigerated centrifuge and set the temperature to 4° C. Take out enzyme conjugate, diluent buffer, Calibrator 0 and stripes needed (for example, two stripes for 8 samples to be run in duplicate) from Mercodia ELISA kit box (store at 4° C.) and warm up them to RT. • xi. […] Centrifuge the tubes at 600 g for 5 min. • xiii. Take out 500 ul in fresh properly labelled precooled tubes. • xiv. Now dilute the samples 1:30 in calibrator 0 i.e. add 3 ul of each sample to 87 ul of Calibrator 0 in 8 different properly labelled 0.5 ml tubes. Mix them well. • xv. Prepare 1× enzyme conjugate buffer, i.e. mix 180 ul enzyme (11×) with 1800 ul diluent buffer for ELISA of two stripes. • xvi. Add 10 ul of each sample (diluted, in duplicate) in the two adjacent wells. Be careful not to touch the bottom. • xvii. Carefully add 100 ul of Enzyme Conjugate buffer (1×) to each well and incubate on a plate shaker (eppendorf MixMate) at 800 rpm for 2 hours at 25° C. • xviii. 45 min before the incubation is over take out wash buffer, substrate TMB and Stop solution. Keep them at RT. • xix. 5 min before the incubation is over prepare 1× wash buffer (21×), i.e. 40 ml distilled water+2 ml (21×) wash buffer in a reservoir. • xx. After the incubation is over, wash each well 7 times with 350 ul wash buffer. Use a multichannel (175 ul). • xxi. After the washing add 200 uL substrate TMB solution in each well. Maintain a proper pace. • xxii. Allow to incubate for 15 min. Set the program on the plate reader, to take absorbance read at 450 nm. Add a 5 sec shake step to allow proper mixing. • xxiii. After incubation immediately add 50 ul Stop solution in each well at same pace and take absorbance read at 450 nm.
Assay conditions were kept same in all the assays. The difference in absorption-value for control experiment (no treatment with molecule) over different days is attributed to cell culture conditions. Other varying conditions are specified in the respective graphs.
[Note: If not mentioned specifically, HG=High Glucose (16.7 mM), LG=Low Glucose (3.3 mM)]

CYP3A4, sequence (P08684 whole entry): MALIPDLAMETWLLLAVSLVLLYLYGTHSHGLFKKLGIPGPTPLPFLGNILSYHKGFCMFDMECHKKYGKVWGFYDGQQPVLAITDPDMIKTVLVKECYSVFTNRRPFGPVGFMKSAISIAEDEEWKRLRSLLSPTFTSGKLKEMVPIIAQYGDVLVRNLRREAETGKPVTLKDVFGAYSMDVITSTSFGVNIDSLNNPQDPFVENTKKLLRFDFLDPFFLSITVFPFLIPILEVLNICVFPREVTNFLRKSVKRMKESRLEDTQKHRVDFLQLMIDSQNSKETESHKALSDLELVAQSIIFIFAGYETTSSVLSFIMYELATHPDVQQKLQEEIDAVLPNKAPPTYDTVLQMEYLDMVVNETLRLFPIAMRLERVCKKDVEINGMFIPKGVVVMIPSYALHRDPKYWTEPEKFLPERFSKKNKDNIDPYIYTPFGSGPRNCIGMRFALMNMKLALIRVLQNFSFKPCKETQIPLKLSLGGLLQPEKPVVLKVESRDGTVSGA

Row | IC50 (CYP3A4) [µM] | SMILES | Metabolic Study HLM Mean % PCR* (Metabolic study in HLM) [%] | Intrinsic Clearnace MLM [1] | Metabolic Study MLM Mean % PCR* [1] [%] | CYP3A4 Inhibition (CYP3A4) | solubility kinetic (Kinetic solubility) [µM] | IC50 (LTA4H) [µM] | Insulin Secretion (MIN6 cells; MIN6 cells, compound 0.1 μM) | Insulin Secretion (MIN6 cells; MIN6 cells, compound 1.0 μM) | melting point [°C] | insulin secretion from MIN6 cells in high glucose conditions (MIN6 cells; 33 uM, 1 hour, high glucose (16.7 mM), three different days) | insulin secretion over control (MIN6 cells; MIN6 cells, 10 nM) | insulin secretion over control (MIN6 cells; MIN6 cells, 50 nM) | increase in insulin secretion (MIN6 cells; MIN6 cells, 100 nM) | Insulin Secretion (MIN6 cells; MIN6 cells, compound 10.0 μM) | glucose dependence of insulinotropic activity (MIN6 cells; MIN6 cells, high glucose vs lower glucose conditions)
1 |  | Cc1[nH]c2ccc(Cl)cc2c1C1=NCCN1 [Example-6 of Patent US20040009976, 5-Chloro-2-methyl-3-(4,5-dihydro-1-H-imidazol-2-yl)-1H-indole, reference compound] | 99.11 | 21.3 μl/min/mg of protein | 64.83 | No inhibition | 196 (≈ 45.9 µg/mL) | > 10 | 1.39 (0.15) ng/ml | 3.68 (2.11) ng/ml |  |  |  |  |  |  | 
2 |  | Clc1ccc2[nH]nc(C3=NCCN3)c2c1 [NDS100178, 5-Chloro-3-(4,5-dihydro-1H-imidazol-2-yl)-1H-indazole] | 79.70 | 80.8 μl/min/mg of protein | 38.84 | No inhibition | 214 (≈ 47.3 µg/mL) | < 0.5 | 8.91 (1.6) ng/ml | 12.49 (1.9) ng/ml | 248 to 249 | significant increase in the insulin secretion | No significant difference over the control | No significant difference over the control | more than 100% | 35.09 (4.0) ng/ml | glucose dependent
3 |  | c1ccc2c(C3=NCCN3)n[nH]c2c1 [NDS100277, 3-(4,5-dihydro-1H-imidazol-2-yl)-1H-indazole] |  |  |  |  |  |  | 11.87 (0.8) ng/ml | 14.66 (0.4) ng/ml |  |  |  |  |  | 20.96 (1.7) ng/ml | 
4 |  | Cn1nc(C2=NCCN2)c2ccccc21 [NDS100278, 3-(4,5-dihydro-1H-imidazol-2-yl)-1-methyl-1H-indazole] |  |  |  |  |  |  | 12.43 (1.1) ng/ml | 10.80 (0.2) ng/ml |  |  |  |  |  | 13.16 (1.6) ng/ml | 
5 |  | c1ccc2c(C3=NC4CCCCC4N3)n[nH]c2c1 (stereo not drawn) [NDS100279, 3-(3a,4,5,6,7,7a-hexahydro-1H-benzo[d]imidazol-2-yl)-1H-indazole] |  |  |  |  |  |  | 10.45 (1.6) ng/ml | 14.57 (3.0) ng/ml |  |  |  |  |  | 21.45 (0.9) ng/ml | 
6 |  | Clc1ccc2[nH]nc(C3=NC4CCCCC4N3)c2c1 (stereo not drawn) [NDS100281, 5-chloro-3-(3a,4,5,6,7,7a-hexahydro-1H-benzo[d]imidazol-2-yl)-1H-indazole] |  |  |  |  |  |  | 14.73 (0.5) ng/ml | 16.91 (0.1) ng/ml |  |  |  |  |  | 20.85 (0.8) ng/ml | 
7 | > 10 | CCn1nc(C2=NCCN2)c2cc(Cl)ccc21 [NDS100282, 5-Chloro-3-(4,5-dihydro-1H-imidazol-2-yl)-1-ethyl-1H-indazole] | 71.71 | 56.4 μl/min/mg of protein | 33.27 |  | 202 (≈ 50.1 µg/mL) |  | 13.02 (0.3) ng/ml | 18.73 (1.0) ng/ml |  |  |  |  |  | 33.15 (0.7) ng/ml | 
8 |  | Clc1ccc2c(c1)c(C1=NCCN1)nn2Cc1ccccc1 [NDS100283, 1-Benzyl-5-chloro-3-(4,5-dihydro-1H-imidazol-2-yl)-1H-indazole] | 86.02 | 145.5 μl/min/mg of protein | 19.09 | No inhibition | 113 (≈ 35.2 µg/mL) |  | 11.35 (1.0) ng/ml | 20.08 (0.8) ng/ml |  |  |  |  |  | 50.45 (3.8) ng/ml | 
